Data as given in patent US10759831B2, “Peptide compound, production method therefor, and use thereof” (iNtRON Biotechnology, Inc., priority 2014, dated 2020).

What was measured:
[1] = tested on: stomach cancer cell line SNU638; assay: SRB cell viability assay, stomach cancer cell line SNU638; format: cell-based; details: Homo sapiens, SNU-638; SNU638, 72 hours; read-out: Cell growth inhibition concentration (IC50)
Experimental: (§1) Regarding a lung cancer cell line A549 (Korean Cell line Bank), a colon cancer cell line HCT116 (ATCC), a stomach cancer cell line SNU638 (Korean Cell Line Bank), a liver cancer cell line SK-HEP-1 (Korean Cell line Bank), and a breast cancer cell line MDA-MB-231 (Korean Cell line Bank), a sulforhodamine B (SRB) assay which is a method of measuring cell viability was used for measuring apoptosis effects of Asperphenin.
(§2) In detail, 190 μl of a cell suspension at a concentration of 3.5×10^4 cells/ml was inoculated in each well of a 96-well microplate. 0.8 μM, 4 μM, 20 μM, or 100 μM of Asperphenin was added to the cell culture medium, and cultured at a temperature of 37° C. for 72 hours under the condition of 5% CO2. After incubation, 50 μl of 50% (v/v) trichloroacetic acid solution (Sigma Aldrich) was added to each well, and then, incubated at a temperature of 4° C. for 30 minutes, to thereby fix the cells thereto. The fixed cells were washed with water five times, and then, dried in the air.
(§3) Next, 80 μl of a 0.4% (w/v) SRB aqueous solution (Sigma Aldrich) containing 1% (v/v) acetic acid (DUKSAN) was added to each well, incubated at room temperature for 1 hour to stain cells therein, and the stained cells washed with water and dried. The cells were dissolved by adding 200 μl of 10 mM Tris (pH 10.0) (Sigma Aldrich) to each well, and then, the number of living cells was calculated by measuring the absorbance thereof at 515 nm. The concentration of the compound inhibiting cell growth to 50% based on the number of the living cells, i.e., 50% inhibition concentration (IC50) was calculated, and the results are shown in Table 3. Here, as a positive control, etoposide (Sigma Aldrich) was used.

[2] = tested on: liver cancer cell line SK-HEP-1; assay: SRB cell viability assay, liver cancer cell line SK-HEP-1; format: cell-based; details: Homo sapiens, SK-HEP1; SK-HEP-1, 72 hours; read-out: Cell growth inhibition concentration (IC50)
Experimental: as §1, §2, §3

[3] = tested on: cell cycle-related proteins in RKO cells; assay: Immunoblotting of cell cycle-related proteins; format: cell-based, human
Experimental: As described in Example 2-3, cells were obtained in a way that Asperphenin B at the concentration of 0.625 μM, 1.25 μM, 2.5 μM, 5 μM, or 10 μM was added to the RKO cells, and then, cultured for 48 hours. However, cells were obtained in a way that Asperphenin B at the concentration of 5 μM was added to the RKO cells, and then, cultured for 0 to 48 hours. Then, proteins were obtained from the obtained cells.
Regarding the expression of the cell cycle-related proteins, anti-p-cyclin B1(Ser147) antibody (Cell Signaling Technology), anti-cyclin B1 antibody (Santa Cruz), anti-p-cdc2(Tyr15) antibody (Cell Signaling Technology), anti-cdc2 antibody (Santa Cruz), and anti-β-actin antibody (Santa Cruz) were used to perform immunoblotting thereon.

- IC50 [1]: 11.7 µM
- IC50 [2]: 3 µM
Structure (SMILES): CCCCCCCCC[C@@H](O)CC(=O)N[C@@H](CC(N)=O)C(=O)N[C@@H](CCC(N)=O)C(=O)N[C@H](CC(=O)c1cc(C)cc(O)c1C(=O)c1c(O)cccc1O)CC(C)C [Asperphenin B]
- Expression of p-cdc2 (Tyr15) protein ([3]; 5 μM, 0 to 48 hours, FIG. 5B): increased in time-dependent manner
- Expression of p-cyclin B1 (Ser147) ([3]; 5 μM, 0 to 48 hours, FIG. 5B): highest at about 24 hours
- Expression of non-active p-cyclin B1 (Ser147) protein ([3]; 48 hours, 2.5 μM, FIG. 5A): increased
- Expression of p-cyclin B1 (Ser147) protein and cyclin B1 protein ([3]; 48 hours, 5 μM and 10 μM, FIG. 5A): decreased
- Expression of non-active p-cdc2 (Tyr15) protein ([3]; 48 hours, 0.625-10 μM, FIG. 5A): increased in a concentration-dependent manner
